Measured values: patent publication US4063015A, “Garamine and derivatives thereof” (Schering Corporation, priority 1975, dated 1977)
In brackets after ≈: the same amount, converted by molar mass. Read-outs that look alike come from different tables or passages of the source.

Tests used:
Format in all cases: cell-based
Escherichia coli = assay: Minimal Inhibitory Concentration (MIC), Table I
Source text: (§1) In general, the novel pseudotrisaccharides of this invention (I) can be used to treat diverse types of susceptible microbial, viral, helmintic and protozoal infestations. These anthelmintic, antiprotozoal, antimicrobial and antiviral activities can readily be determined by standard in vivo and in vitro tests well known to the microbiologist and virologist. Of the compounds of this invention it can generally be stated that those 6'--NH2 or 6'--NHR4 compounds having a 2'--OH group are preferred for their activity against bacteria, trichomonas, amoeba, and helminths; those 2'--HN2 or 2'--NHR4 compounds having a 6'--OH group are preferred for their activity against bacteria, trichomona, amoeba, and helminths; those 2'--NH2 or 2'--NHR4 compounds having a 6'--NH2 or a 6'--NHR4 group are preferred for their antibacterial activity while those 2'--OH or 6'--OH compounds are preferred for their antitrichomonal activity.
(§2) Typical activity is illustrated by the following tables showing antibacterial and antiprotozoal activities.
(§3) Minimal Inhibitory Concentration (MIC) (mcg/ml)

Proteus mirabilis = assay: Minimal Inhibitory Concentration (MIC), Table I
Source text: as §1, §2, §3

[1] = test system: Escherichia coli (G resistant); assay: Minimal Inhibitory Concentration (MIC), Table I; conditions: garamycin resistant
Source text: as §1, §2, §3

[2] = test system: Klebsiella pneumoniae (N,M resistant); assay: Minimal Inhibitory Concentration (MIC), Table I
Source text: as §1, §2, §3

Providence = assay: Minimal Inhibitory Concentration (MIC), Table I
Source text: as §1, §2, §3

[3] = test system: Pseudomonas aeruginosa (G resistant); assay: Minimal Inhibitory Concentration (MIC), Table I; conditions: garamycin resistant
Source text: as §1, §2, §3

Streptococcus pyogenes C = assay: Minimal Inhibitory Concentration (MIC), Table I
Source text: as §1, §2, §3

[4] = test system: Escherichia coli (T resistant); assay: Minimal Inhibitory Concentration (MIC), Table I; conditions: tobramycin resistant
Source text: as §1, §2, §3

Staphylococcus aureus = assay: Minimal Inhibitory Concentration (MIC), Table I
Source text: as §1, §2, §3

[5] = test system: Klebsiella pneumoniae (G-resistant); assay: Minimal Inhibitory Concentration (MIC), Table I; conditions: garamycin resistant
Source text: as §1, §2, §3

Bacillus subtilis = assay: Minimal Inhibitory Concentration (MIC), Table I
Source text: as §1, §2, §3

[6] = test system: Escherichia coli (N,K resistant); assay: Minimal Inhibitory Concentration (MIC), Table I; conditions: neomycin, kanamycin resistant
Source text: as §1, §2, §3

Serratia marcessans = assay: Minimal Inhibitory Concentration (MIC), Table I
Source text: as §1, §2, §3

Trichomonas Vaginalis = assay: In vitro Activity Against Trichomonas Vaginalis, Table II; conditions: for IC99: read-out: Minimal 99% suppression level; for MBC: read-out: Minimal Cidal Level
Source text: as §1, §2
In vitro Activity Against Trichomonas Vaginalis
STS - Simplified Tripticase Serum Medium, Baltimore Biological
Laboratories, Baltimore, Maryland.

Salmonella typhimurium = assay: Minimal Inhibitory Concentration (MIC), Table I; conditions: Salmonella enterica
Source text: as §1, §2, §3

Pseudomonas aeruginosa = assay: Minimal Inhibitory Concentration (MIC), Table I
Source text: as §1, §2, §3

SMILES	MIC (Escherichia coli) [µg/mL]	MIC (Proteus mirabilis) [µg/mL]	MIC [1] [µg/mL]	MIC [2] [µg/mL]	MIC (Providence) [µg/mL]	MIC [3] [µg/mL]	MIC (Streptococcus pyogenes C) [µg/mL]	MIC [4] [µg/mL]	MIC (Staphylococcus aureus) [µg/mL]	MIC [5] [µg/mL]	MIC (Bacillus subtilis) [µg/mL]	MIC [6] [µg/mL]	MIC (Serratia marcessans) [µg/mL]	IC99 (Trichomonas Vaginalis; 24 hr.) [µg/mL]	MBC (Trichomonas Vaginalis; 24 hr.) [µg/mL]	IC99 (Trichomonas Vaginalis; 48 hr.) [µg/mL]	MBC (Trichomonas Vaginalis; 48 hr.) [µg/mL]	MIC (Salmonella typhimurium) [µg/mL]	MIC (Pseudomonas aeruginosa) [µg/mL]
CN[C@@H]1[C@@H](O)[C@@H](O[C@@H]2[C@@H](O)[C@H](O[C@H]3O[C@H](CO)[C@@H](O)[C@H](O)[C@H]3N)[C@@H](N)C[C@H]2N)OC[C@]1(C)O (stereo in doubt) [Gentamicin X2]	0.8 to 3 (≈ 1.66 to 6.22 µM)	3 (≈ 6.22 µM)	> 25	> 25	> 25	> 25	1 to 17.5 (≈ 2.07 to 36.3 µM)	> 25	0.3 to 7.5 (≈ 0.622 to 15.5 µM)	> 25	0.08 (≈ 0.166 µM)	> 25	> 25	10	10 (≈ 20.7 µM)	< 10	10 (≈ 20.7 µM)		
CCN[C@@H]1C[C@H](O)[C@@H](CO)O[C@@H]1O[C@H]1[C@H](O)[C@@H](O[C@H]2OC[C@](C)(O)[C@H](NC)[C@H]2O)[C@H](N)C[C@@H]1N [3'-Deoxy-2'-N-ethylgentamicin X2]		> 25	> 25	3 to 7.5 (≈ 6.07 to 15.2 µM)	> 25	> 25	> 25	3 (≈ 6.07 µM)		> 25	> 25	17.5 (≈ 35.4 µM)	3 (≈ 6.07 µM)	< 2.5	< 2.5	< 2.5	< 2.5		
CCN[C@H]1[C@@H](O[C@H]2[C@H](O)[C@@H](O[C@H]3OC[C@](C)(O)[C@H](NC)[C@H]3O)[C@H](N)C[C@@H]2N)O[C@H](CO)[C@@H](O)[C@@H]1O [2'-N-Ethylgentamicin X2]		> 25		> 25	> 25	> 25		> 25	3 to 7.5 (≈ 5.88 to 14.7 µM)	> 25	3 (≈ 5.88 µM)	> 25	> 25	< 10	10 (≈ 19.6 µM)	< 2.5	2.5 (≈ 4.9 µM)	3 (≈ 5.88 µM)	
CN[C@@H]1[C@@H](O)[C@@H](O[C@@H]2[C@@H](O)[C@H](O[C@H]3O[C@H](CO)[C@@H](O)C[C@H]3N)[C@@H](N)C[C@H]2N)OC[C@]1(C)O [3'-Deoxygentamicin X2]	3 to 7.5 (≈ 6.43 to 16.1 µM)	7.5 (≈ 16.1 µM)	> 25	0.8 to 3 (≈ 1.71 to 6.43 µM)	> 25	> 25		17.5 (≈ 37.5 µM)	0.5 to 7.5 (≈ 1.07 to 16.1 µM)	> 25	0.03 (≈ 0.0643 µM)	3 to 7.5 (≈ 6.43 to 16.1 µM)	0.8 (≈ 1.71 µM)	10	10 (≈ 21.4 µM)	< 10	10 (≈ 21.4 µM)	7.5 (≈ 16.1 µM)	3 to 7.5 (≈ 6.43 to 16.1 µM)
CN[C@@H]1[C@@H](O)[C@@H](O[C@@H]2[C@@H](O)[C@H](O[C@H]3O[C@H](CN)[C@@H](O)C[C@H]3N)[C@@H](N)C[C@H]2N)OC[C@]1(C)O [3'-deoxy-JI-20A, O-2,6-Diamino-2,3,6-trideoxy-α-D-glucopyranosyl-(1→4)-garamine]	0.08 (≈ 0.172 µM)	0.3 (≈ 0.644 µM)	> 25	0.08 (≈ 0.172 µM)	> 25	> 25	0.8 to 7.5 (≈ 1.72 to 16.1 µM)	17.5 (≈ 37.6 µM)	0.08 to 0.3 (≈ 0.172 to 0.644 µM)		< 0.05	0.08 to 0.8 (≈ 0.172 to 1.72 µM)	3 (≈ 6.44 µM)					0.75 (≈ 1.61 µM)	0.08 to 0.8 (≈ 0.172 to 1.72 µM)
